This is an account of results in article PMC4024065, “Optimization of an Imidazopyridazine Series of Inhibitors of Plasmodium falciparum Calcium-Dependent Protein Kinase 1 (PfCDPK1)” (Journal of Medicinal Chemistry, 2014).

The conditions of data set [1]: Figure 1 summary data; cited from earlier work.
The conditions of data set [2]: Figure 1 summary data; cited from earlier work. The source holds these as a separate data set.
Data set [3] can be described thus: Pharmacokinetics in rats. It counts as in vivo. The settings on record: rat, hydrochloride salt.

Like-named read-outs stand apart in the source and are kept apart here.

For `CC(C)CCNc1ccc(-c2cnc3ccc(NC4CCN(C)CC4)nn23)cn1` [Compound 1], the “HLM % rem at 40 min” value in data set [1] was 85%. Moreover, the “MLM % rem at 30 min” value in data set [2] is on record as 63%.
The Vd is the apparent volume that relates the amount in the body to the concentration in plasma or blood. Consider `CN1CCC(Nc2ccc3ncc(-c4ccc(Nc5ncccc5F)cc4)n3n2)CC1` [Compound 35, 3-{4-[(3-Fluoropyridin-2-yl)amino]phenyl}-N-(1-methylpiperidin-4-yl)imidazo[1,2-b]pyridazin-6-amine], for which, in data set [3] (in vivo, iv 4.5 mg/kg), the Vd is 8 L/kg. The half-life in data set [3] (in vivo, iv 4.5 mg/kg, read-out: iv t1/2 (converted)) was 4 h. The clearance amounted to 28 mL/min/kg in data set [3] (plasma, iv 4.5 mg/kg, read-out: plasma Cl) and 14 mL/min/kg in data set [3] (whole blood, iv 4.5 mg/kg, read-out: blood Cl). In addition, in data set [3] (po 21 mg/kg, iv […]), the “oral BA” value was found to be 70%.
